Measurements from US10085973B2, “Pharmaceutical composition containing a compound having a thrombopoietin receptor agonistic activity” (Shionogi & Co., Ltd., priority 2012, dated 2018).

Tests used:
Type in all cases: in vivo, human
[1] = system: patients with thrombocytopenia caused by chronic liver disease; assay: Example 2 Test Example 1: repeated oral administration before percutaneous liver ablation with discontinuation criteria
Text: (§1) To patients with thrombocytopenia caused by chronic liver disease, lusutrombopag as a pretreatment of percutaneous liver ablation was orally administered repeatedly for 7 days while applying the discontinuation criteria designed in Example 1 and profile of the platelet count was studied. In the present Example, the term “ablation” refers to radiofrequency ablation.
(§2) Patients with thrombocytopenia caused by chronic liver disease who are scheduled to undergo percutaneous liver ablation.
(§3) Patients who meet the following inclusion criteria are included. • 1) Age: 20 years of age or older (at the time of signing informed consent); • 2) Patients who themselves can give a consent in writing; • 3) Patients who have a complication or a history of chronic liver disease caused by hepatitis B or C virus; • 4) Patients who are scheduled to undergo percutaneous liver ablation for primary liver cancer; • 5) Patients having a platelet count which is less than 5×10^4/μL at the time of screening; • 6) Patients whose ECOG* Performance Status of Grade is 0 to 1; and • 7) Patients who can practice contraception from entry to the end of observation. (Exclusion Criteria)
(§4) Patients who meet the following criteria are excluded. • 1) Patients who underwent splenectomy; • 2) Patients who have a complication presenting thrombocytopenia; • 3) Patients who underwent liver transplant; • 4) Degree of hepatic disorder classified as the Child-Pugh class of C; • 5) Hepatic encephalopathy uncontrolled by medicaments; • 6) Ascites uncontrolled by medicaments; • 7) Patients who have a complication of malignant tumor other than primary liver cancer; • 8) Patients who have a complication or a history of thrombosis or thrombotic disease; • 9) Patients who have absence of hepatopetal blood flow in the portal vein; • 10) Patients who have a complication or a history of disease with hemorrhage risk; • 11) Patients who received a therapeutic agent that affects a platelet count or underwent a therapy that affects a platelet count within 90 days before registry; • 12) Patients who received a blood product (excluding erythrocyte product) within 14 days before registry; or • 13) Patients who previously received a TPO receptor agonist. (Drugs which are Prohibited, Limited or Allowed for Coadministration During the Trial)
In each allocated group, lusutrombopag is orally administered repeatedly once daily for 7 days. After patients are monitored on day 8, they undergo percutaneous liver ablation before day 13 from initiation of administration. They are monitored until about day 30 after initiation of administration.
(§5) Lusutrombopag is orally administered repeatedly once daily for 7 days. On day 1, the drug is administered at the time of visit. On day 3 to day 7 (day 5 to day 7 for the group of 2.0 mg administration), the drug shall be administered after checking the platelet count measured on the same day. Administration of lusutrombopag shall be discontinued when the platelet count reaches to the following criteria (administration discontinuating criteria) in a clinical examination after administration of the investigational drug.
(§6) Administration discontinuating criteria: when the platelet count has increased by 2×10^4/μL or more from the platelet count before initiation of administration and the platelet count has reached to 5×10^4/μL or higher.
(§7) As the platelet count before initiation of administration, the platelet count determined within 7 days before initiation of administration was used.
Daily dose was any one of 2.0, 2.5, 3.0 and 4.0 mg of lusutrombopag.
Proportion of patients who have a platelet count on day 8 after initiation of administration that increased by 2×10^4/μL or more from the platelet count before initiation of administration and reached to 5×10^4/μL or higher. […]

[2] = PK model from phase 1 trial in healthy male adults (plasma concentration)
Text: Using the plasma concentration of the drug and the platelet count data of 54 cases obtained in phase 1 trial carried out in Japan to healthy male adults, a PK/PD model was constructed that can describe pharmacokinetics and a profile of a platelet count. The PK model describing pharmacokinetics was a three-compartment model including three compartments in the absorption process in order to explain the delay in absorption. The PD model describing the relation between the plasma concentration and the profile of platelets counts was a model including five compartments in order to explain the maturation process of platelets. […] We assumed that the distributions of respective model parameters and the distributions of the residual errors of the models follow a log-normal distribution. Parameters were estimated by using the first order conditional estimation method with interaction in a software NONMEM (version VI, level 2.0).

[3] = system: patients with thrombocytopenia caused by chronic liver disease; assay: Example 2 Test Example 2: placebo-controlled repeated oral administration before percutaneous liver ablation with discontinuation criteria
Text: as §1, §2
as §3, with “of” for “of signing informed”, “with thrombocytopenia caused by” for “who have a complication or a history of”, “disease;” for “disease caused by hepatitis B or C virus;”
as §4
In each allocated group, lusutrombopag is orally administered repeatedly once daily for 7 days. After patients are monitored on day 8, they undergo percutaneous liver ablation before day 14 from initiation of administration. They are monitored until about day 30 after initiation of administration.
as §5, with “day” for “day 3 to day 7 (day”, “7,” for “7 for the group of 2.0 mg administration),”
as §6, §7
Daily dose was any one of 2.0, 3.0 and 4.0 mg of lusutrombopag.
Proportion of patients who have a platelet count on day 8 after initiation of administration that increased by 2×10^4/μL or more from a platelet count before initiation of administration and reached to 5×10^4/μL or higher. […]

CCCCCCO[C@@H](C)c1cccc(-c2csc(NC(=O)c3cc(Cl)c(/C=C(\C)C(=O)O)c(Cl)c3)n2)c1OC [lusutrombopag, (E)-3-[2,6-dichloro-4-[4-[3-[(S)-1-hexyloxyethyl]-2-methoxyphenyl]-thiazol-2-ylcarbamoyl]-phenyl]-2-methylacrylic acid]
Endpoint 2: Number of patients who had a platelet count during the trial that increased by 2 × 10^4/μL or more from the count before initiation of administration and reached to 5 × 10^4/μL or higher ([1]; 2.0 mg once daily, n = 12): 9 | Number of patients to whom administration was discontinued according to the administration discontinuating criteria ([1]; 2.0 mg once daily, n = 12): 3 | Number of patients who received platelet transfusion ([1]; 2.0 mg once daily, n = 12): 2 | Endpoint 2: Number of patients who had a platelet count during the trial that increased by 2 × 10^4/μL or more from the count before initiation of administration and reached to 5 × 10^4/μL or higher ([1]; 2.5 mg once daily, n = 6): 4 | Number of patients to whom administration was discontinued according to the administration discontinuating criteria ([1]; 2.5 mg once daily, n = 6): 3 | Number of patients who received platelet transfusion ([1]; 2.5 mg once daily, n = 6): 1 | Endpoint 2: Number of patients who had a platelet count during the trial that increased by 2 × 10^4/μL or more from the count before initiation of administration and reached to 5 × 10^4/μL or higher ([1]; 3.0 mg once daily, n = 7): 6 | Number of patients to whom administration was discontinued according to the administration discontinuating criteria ([1]; 3.0 mg once daily, n = 7): 0 | Number of patients who received platelet transfusion ([1]; 3.0 mg once daily, n = 7): 1 | Endpoint 2: Number of patients who had a platelet count during the trial that increased by 2 × 10^4/μL or more from the count before initiation of administration and reached to 5 × 10^4/μL or higher ([1]; 4.0 mg once daily, n = 8): 7 | Number of patients to whom administration was discontinued according to the administration discontinuating criteria ([1]; 4.0 mg once daily, n = 8): 2 | Number of patients who received platelet transfusion ([1]; 4.0 mg once daily, n = 8): 1 | efficacy at each dose ([1]; all doses (2.0, 2.5, 3.0 and 4.0 mg)): all doses showed the efficacy | patients who had a platelet count of higher than 20×10^4/μL during the observation period ([1]; daily dose 2.0, 2.5, 3.0 and 4.0 mg): None | maximum platelet count of patients to whom administration was discontinued according to the criteria ([1]; groups of daily dose 2 mg, 2.5 mg and 4.0 mg, vs patients who received the drug for 7 days): lower than that of patients who received the drug for 7 days | CL (apparent total clearance), mean [2]: 0.776 L/h | Intra-individual variability (PK model, plasma concentration) [2]: 12.1% | Q3/F (inter-compartmental clearance), mean [2]: 0.946 L/h | Q4/F (inter-compartmental clearance), mean [2]: 0.0262 L/h | V3/F (volume of distribution of peripheral compartment), mean [2]: 6.28 L | V4/F (volume of distribution of peripheral compartment), mean [2]: 2.71 L | ka (transfer rate constant from absorption compartments to central compartment), mean ([2]; Fasting + solution): 0.563 h⁻¹ | ktr (inter-absorption-compartmental transfer rate constant), mean ([2]; Fasting + solution): 4.19 h⁻¹ | ka (transfer rate constant from absorption compartments to central compartment), mean ([2]; Postprandial + solution): 0.285 h⁻¹ | ktr (inter-absorption-compartmental transfer rate constant), mean ([2]; Postprandial + solution): 2.15 h⁻¹ | ka (transfer rate constant from absorption compartments to central compartment), mean ([2]; Postprandial + tablet): 0.854 h⁻¹ | ktr (inter-absorption-compartmental transfer rate constant), mean ([2]; Postprandial + tablet): 1.38 h⁻¹ | Vd/F ([2]; male, human, plasma, oral, × (1 + (BW − 63) × 0.0172), BW body weight kg, read-out: V2/F (volume of distribution of the central compartment), mean): 15.9 L | Endpoint 2: Number of patients who had a platelet count during the trial that increased by 2 × 10^4/μL or more from the count before initiation of administration and reached to 5 × 10^4/μL or higher ([3]; 2.0 mg once daily, n = 15): 10 | Number of patients to whom administration was discontinued according to the administration discontinuating criteria ([3]; 2.0 mg once daily, n = 15): 3 | Number of patients who received platelet transfusion ([3]; 2.0 mg once daily, n = 15): 3 | Endpoint 2: Number of patients who had a platelet count during the trial that increased by 2 × 10^4/μL or more from the count before initiation of administration and reached to 5 × 10^4/μL or higher ([3]; 3.0 mg once daily, n = 16): 11 | Number of patients to whom administration was discontinued according to the administration discontinuating criteria ([3]; 3.0 mg once daily, n = 16): 3 | Number of patients who received platelet transfusion ([3]; 3.0 mg once daily, n = 16): 3 | Endpoint 2: Number of patients who had a platelet count during the trial that increased by 2 × 10^4/μL or more from the count before initiation of administration and reached to 5 × 10^4/μL or higher ([3]; 4.0 mg once daily, n = 15): 12 | Number of patients to whom administration was discontinued according to the administration discontinuating criteria ([3]; 4.0 mg once daily, n = 15): 5 | Number of patients who received platelet transfusion ([3]; 4.0 mg once daily, n = 15): 4 | efficacy at each dose ([3]; all doses (2.0, 3.0 and 4.0 mg)): all doses showed the efficacy | patients who had a platelet count of higher than 20×10^4/μL during the observation period ([3]; daily dose 2.0, 3.0 and 4.0 mg): None
